The values that follow come from US6540976B1, “Method for reducing radiation toxicity” (The Board of Trustees of the University of Arkansas, priority 1997, dated 2003).

Data set [1] relates to radiation enteropathy (irradiated small bowel). Kind of data set: Rat small bowel radiation enteropathy model, single dose irradiation. Type of data set: in vivo, rats. Here is the method:
A 4-cm segment of distal ileum was sutured to the inside of the scrotum in orchiectomized male rats, thus forming an artificial “scrotal hernia”. The afferent bowel was divided 10 cm proximal to the “hernia”, an end ileostomy was prepared, and intestinal continuity was restored by end-to-side anastomosis. The intestine in the “hernia” was subsequently exposed to 0, 18, or 21 Gy single dose, or 8 daily fractions of 5.6 Gy (total dose 44.8 Gy), external beam X-irradiation. […] Mucosal injury was monitored non-invasively by assessment of granulocyte marker protein (GMP) excretion. Irradiated and shielded intestine were procured 2 weeks after irradiation and assessed for structural changes by histopathologic scoring, and for TGF-β, IL-1α, and ED-2 macrophage antigen immunoreactivity. Radiation injury scores are Ad the sum of 7 different histopathologic parameters graded according to severity. Intestinal wall thickness was measured with light microscopy and a stage micrometer. Intestinal wall TGF-β immunoreactivity levels were measured with computerized image analysis, and the number of ED-2 positive cells (macrophages) were counted with a light microscope and fields were determined according to a predetermined grid pattern.

Data set [2] shares this test system. Briefly: Rat small bowel radiation enteropathy model, fractionated radiation. To be noted: 8 x 5.6 Gy, 30 mg/kg q.d. for 14 days. The data set is classed as in vivo, rats. Here is the method: A 4-cm segment of distal ileum was sutured to the inside of the scrotum in orchiectomized male rats, thus forming an artificial “scrotal hernia”. The afferent bowel was divided 10 cm proximal to the “hernia”, an end ileostomy was prepared, and intestinal continuity was restored by end-to-side anastomosis. The intestine in the “hernia” was subsequently exposed to 0, 18, or 21 Gy single dose, or 8 daily fractions of 5.6 Gy (total dose 44.8 Gy), external beam X-irradiation. Orazipone or vehicle was injected through the stoma from 3 days prior to 2 weeks after irradiation. Mucosal injury was monitored non-invasively by assessment of granulocyte marker protein (GMP) excretion. Irradiated and shielded intestine were procured 2 weeks after irradiation and assessed for structural changes by histopathologic scoring, and for TGF-β, IL-1α, and ED-2 macrophage antigen immunoreactivity. Radiation injury scores are Ad the sum of 7 different histopathologic parameters graded according to severity. Intestinal wall thickness was measured with light microscopy and a stage micrometer. Intestinal wall TGF-β immunoreactivity levels were measured with computerized image analysis, and the number of ED-2 positive cells (macrophages) were counted with a light microscope and fields were determined according to a predetermined grid pattern.
To evaluate the effects of Orazipone following fractionated radiation, the transposed loop of small bowel was exposed to sham-irradiation or 8 daily fractions of 5.6 Gy (total dose 44.8 Gy). Orazipone (30 mg/kg q.d.) or vehicle was delivered for 14 days in 2 separate experimental groups. Group 1 received the drug during and after irradiation (radiation day 2 through post-radiation day 7), while Group 2 received the drug only after irradiation (post-radiation days 0 through 13). All animals were euthanized on post-radiation day 14.

In a further data set the test system is mononuclear cells. Particulars: cited from earlier work.
The next data set concerns neutrophils. To be noted: cited from earlier work.
Another data set relates to T-cell. To be noted: cited from earlier work.
The conditions of data set [3]: in vivo; cited from earlier work.
Where [4] appears, read: single dose irradiation, vs vehicle-treated controls, p<0.01.
[5] abbreviates: given either during or after irradiation.

Regarding `CC(=O)C(=Cc1ccc(S(C)(=O)=O)cc1)C(C)=O` [Orazipone], the TGF-β overexpression result in data set [1] (30 mg/kg daily for 1 week after a single dose of 21 Gy) is “significantly attenuated”. In data set [1] (30 mg/kg daily for 1 week after a single dose of 21 Gy, reduced from 80% (control)), the “frequency of subacute severe small bowel radiation toxicity” value is recorded as 25%. Further, in data set [1] (single dose irradiation), the GMP excretion result was “not significantly affected” and the macrophage accumulation result is listed as “not significantly affected”. Also, in data set [1] (setting [4]), the “extracellular matrix-associated TGF-β immunoreactivity” value was “less” and the “histopathologic injury of irradiated intestine” value is given as “less”. In data set [1] (single dose irradiation, vs vehicle-treated controls, p<0.05), the intestinal wall thickening result was “less”. Further, the IL-1α positive cells entry in data set [1] (single dose irradiation, vs vehicle-treated controls, p=0.05) was “less”. Moreover, in data set [2] (setting [5]), the “subacute radiation enteropathy as assessed by Radiation Injury Score” value is reported as “significantly ameliorated”, the “subacute radiation enteropathy as assessed by extracellular matrix-associated TGF-β immunoreactivity” value is given as “significantly ameliorated” and the “subacute radiation enteropathy as assessed by intestinal wall thickness” value was “significantly ameliorated”. In addition, in data set [2] (among the treatment groups), the “extent of mucosal injury (mucosal surface area measurements)” value is given as “did not differ”. Moreover, the “release of IL-1α, IL-1β and TNFα from mononuclear cells” value in the data set on mononuclear cells is on record as “inhibits”. The “NADPH oxidase and LTB4 production by neutrophils” value in the data set on neutrophils is recorded as “suppresses”. For the same compound, the “T-cell proliferation and IL-2 release” value in the data set with T-cell was “reduces”. Besides, the “fate of absorbed drug (metabolism)” value in data set [3] is “broken down into inactive metabolites very quickly”.
